From patent publication US20260115250A1, “METHODS OF TREATING AGE-RELATED MACULAR DEGENERATION” (Character Biosciences, Inc., priority 2022, published 2026)
Peptide text beside a SMILES is read from it.

What was measured:
[1] = peptide binding to non-oxidized and oxidized lipids (SPR); conditions: immobilized peptide; RU normalized to DMPC
Method: FIGS. 25A-25O show peptide binding activity to non-oxidized and oxidized lipids via SPR for indicated peptides. Peptides were reconstituted to 50 μg/mL in 10 mM acetate buffer, pH 4.5 and immobilized to ˜200 RU on a CM5 chip via amine coupling. Non-oxidized lipids (DMPC & POPC) and oxidized lipids (POVPC & KOdiA-PC) were diluted to 100 µM in HBS-EP running buffer and exposed to the chip for binding (n=3) at a flow rate of […] for 120 seconds. The surface was regenerated with 20% EtOH. T-001 served as a positive control and T-031 served as a negative control on each chip. For each peptide, the RU response for all lipids was normalized to the DMPC RU values.

[2] = tested on: ARPE-19 cells; experiment: ARPE-19 cholesterol import (BODIPY-Cholesterol); type: cell-based, human; conditions: ARPE-19, 0.37-30 μM peptide, FIG. 15
Method: FIG. 12 and FIGS. 14A-14B illustrate the results of ARPE-19 cholesterol import testing. ARPE-19 cells were seeded on 96-well plates at 25,000 cells per well and grown to confluence. A 2× solution of 500 μM DMPC and 50 μM BODIPY-Cholesterol were prepared in serum free DMEM: F12. Peptides were diluted to 20 μM in serum free DMEM: F12 (a 2× solution). Peptides were added to lipid solution in equal parts (60 μL each) and were incubated for 1 hour at 37° C. ARPE-19 cells were serum starved in serum free DMEM: F12 for 1 hour at 37° C. Peptide: Lipid complexes (100 μL total volume per well) were transferred to ARPE-19 cells for 2 hours at 37° C. Cells were washed, fixed, and intracellular fluorescence was read on Promega GloMax at 475 nm excitation, 500-550 emission. Fluorescence values were background corrected from no treatment conditions. Data are presented as mean+SD for two runs.
FIG. 15 illustrates ARPE-19 cholesterol import titration curves for a subset of the peptides. ARPE-19 cells were seeded on 96-well plates at 25,000 cells per well and grown to confluence. A 2× solution of 500 μM DMPC and 50 μM BODIPY-Cholesterol was prepared in serum free DMEM: F12. Peptides were diluted to 0.74-60 μM in serum free DMEM: F12 (2× solutions). Peptides were added to lipid solution in equal parts (60 μL each) to create final peptide concentrations of 0.37-30 µM and incubated for 1 hour at 37° C. ARPE-19 cells were serum starved in serum free DMEM: F12 for 1 hour at 37° C. Peptide: Lipid complexes (100 μL total volume per well) were transferred to ARPE-19 cells for 2 hours at 37° C. Cells were washed, fixed, and intracellular fluorescence was read on Promega GloMax at 475 nm excitation, 500-550 emission. Fluorescence values were background corrected from no treatment conditions. […]
ARPE-19 cells were seeded on 96-well plates at 25,000 cells per well and grown to confluence. […] Cells were washed, fixed, and intracellular fluorescence was read on Promega GloMax at 475 nm excitation, 500-550 emission. Fluorescence values were background corrected from no treatment conditions. […]

[3] = tested on: HepG2 cells; experiment: HepG2 GAG dependent cholesterol import (with or without heparin); type: cell-based; conditions: HepG2, 10 μM peptide, with or without 100 μg/mL heparin
Method: HepG2 cells were seeded on 96-well plates at 10,000 cells per well and grown to confluence. A 2× solution of 500 μM DMPC and 50 μM BODIPY-Cholesterol with or without 100 μg/mL heparin was prepared in serum free EMEM. Peptides were diluted to 20 μM in serum-free EMEM (a 2× solution). Peptides were added to lipid solution in equal parts (60 μL each) and incubated for 1 hour at 37° C. HepG2 cells were serum starved in serum-free EMEM for 1 hour at 37° C. Peptide: Lipid complexes (100 μL total volume per well) were transferred to HepG2 cells for 2 hours at 37° C. Cells were washed, fixed, and intracellular fluorescence was read on Promega GloMax at 475 nm excitation, 500-550 emission. Fluorescence values were background corrected from no treatment conditions. Data are presented ±SD for 2 runs.

[4] = tested on: ARPE-19 cells; experiment: ARPE-19 cell lysis (Sytox Green); type: cell-based, human; conditions: 3.16-100 μM peptide, 2 h
Method: These figures illustrate ARPE-19 cell lysis. ARPE-19 cells were grown in 96-well plates to 75-85% confluence. Peptides at 10 mM were diluted in serum-free DMEM:F12 media into a 20 μM working solution (a 2× solution). Sytox Green was prepared in serum-free DMEM:F12 at a 1 μM working solution (a 2× solution). Equivalent volumes of the peptide and Sytox Green solutions were added to empty 96-well plates and mixed gently. Final peptide concentration was 10 μM. ARPE-19 cells (˜80% confluent in 96-well plates) were washed with DPBS and then incubated in 100 μL of peptide/Sytox Green mixture for 2 h at 37° C. Cells were fixed in 4% paraformaldehyde solution in DPBS and then incubated in 10 μM Hoechst solution for 10 min, washed, and imaged on a Yokogawa CQ1 high-content imager. CellPathfinder software was used to count live/dead cells in 4 fields of view at 20× magnification. Percent (%) lysis was calculated by dividing the number of Sytox Green+ nuclei by the total number of Hoechst+ nuclei.
ARPE-19 cells were grown in 96-well plates to 75-85% confluence. Peptides at 10 mM were diluted in serum-free DMEM: F12 media to solutions between […]. Sytox Green was prepared in serum-free DMEM: F12 media at a 1 μM working solution. Equivalent volumes of the peptide and Sytox Green solutions were added to empty 96-well plates and mixed gently. Final peptide concentration was 3.16-100 μM. ARPE-19 cells (˜80% confluent in 96-well plates) were washed with DPBS and then incubated in 100 μL of peptide/Sytox Green mixture for 2 h at 37° C. Cells were fixed in 4% paraformaldehyde solution in DPBS and then incubated in 10 μM Hoechst solution for 10 min, washed, and imaged on a Yokogawa CQ1 high-content imager. CellPathfinder software was used to count live/dead cells in 4 fields of view at 20× magnification. Percent (%) lysis was calculated by dividing the number of Sytox Green+ nuclei by the total number of Hoechst+ nuclei. Non-linear regression was used to calculate EC50 values.

CC[C@H](C)[C@H](NC(=O)CNC(=O)[C@H](CO)NC(=O)[C@@H](NC(=O)[C@H](Cc1c[nH]c2ccccc12)NC(=O)[C@H](Cc1c[nH]cn1)NC(=O)[C@H](CCC(=O)O)NC(=O)[C@H](Cc1ccccc1)NC(=O)[C@H](CCCNC(=N)N)NC(=O)[C@H](CC(C)C)NC(=O)[C@H](CC(C)C)NC(=O)[C@H](CCCNC(=N)N)NC(=O)[C@H](CCCCN)NC(=O)[C@H](CCCNC(=N)N)NC(=O)[C@H](CC(C)C)NC(=O)[C@H](CCCCN)NC(=O)[C@H](CCCNC(=N)N)NC(=O)[C@H](CC(C)C)NC(=O)[C@@H](N)Cc1c[nH]cn1)[C@@H](C)CC)C(=O)N[C@@H](Cc1ccc(O)cc1)C(=O)N[C@@H](CO)C(=O)N[C@@H](CCC(=O)O)C(=O)N[C@@H](CS)C(=O)N[C@@H](CCCCN)C(=O)N[C@@H](Cc1c[nH]cn1)C(=O)N[C@@H](CC(C)C)C(=O)N[C@H](C(=O)N[C@@H](CCC(N)=O)C(=O)N[C@@H](CCC(=O)O)C(=O)O)[C@@H](C)CC [T-025] (H-HLRKLRKRLLRFEHWISGIYSECKHLIQE-OH; N-terminus and C-terminus assumed)
binding to oxidized lipids relative to DMPC [1]: binding to at least one oxidized lipid that was equivalent or improved to binding against DMPC
cholesterol import titration [2]: concentration-dependent increase in cholesterol import
GAG dependence of cholesterol import [3]: rely on GAG binding for cholesterol import activity
EC50 [4]: 144 µM
